Here are results for nine molecules from patent US20250320213A1, “Nitrogen-Containing Heterocyclic Compounds” (Pfizer Inc., priority 2024, published 2025).

Like-named read-outs stand apart in the source and are kept apart here.

The target in one assay is T1, STAT6 (Homo sapiens, UniProt P42226).
T1 construct: stably transfected HaCaT keratinocyte cell line, which expresses NanoLuc luciferase reporter gene under the transcriptional control of the STAT6 responsive promoter; endogenous in cells; host or cells: HaCaT keratinocyte reporter cell line (stably transfected with a NanoLuc reporter)
T1 sequence (P42226 1-847): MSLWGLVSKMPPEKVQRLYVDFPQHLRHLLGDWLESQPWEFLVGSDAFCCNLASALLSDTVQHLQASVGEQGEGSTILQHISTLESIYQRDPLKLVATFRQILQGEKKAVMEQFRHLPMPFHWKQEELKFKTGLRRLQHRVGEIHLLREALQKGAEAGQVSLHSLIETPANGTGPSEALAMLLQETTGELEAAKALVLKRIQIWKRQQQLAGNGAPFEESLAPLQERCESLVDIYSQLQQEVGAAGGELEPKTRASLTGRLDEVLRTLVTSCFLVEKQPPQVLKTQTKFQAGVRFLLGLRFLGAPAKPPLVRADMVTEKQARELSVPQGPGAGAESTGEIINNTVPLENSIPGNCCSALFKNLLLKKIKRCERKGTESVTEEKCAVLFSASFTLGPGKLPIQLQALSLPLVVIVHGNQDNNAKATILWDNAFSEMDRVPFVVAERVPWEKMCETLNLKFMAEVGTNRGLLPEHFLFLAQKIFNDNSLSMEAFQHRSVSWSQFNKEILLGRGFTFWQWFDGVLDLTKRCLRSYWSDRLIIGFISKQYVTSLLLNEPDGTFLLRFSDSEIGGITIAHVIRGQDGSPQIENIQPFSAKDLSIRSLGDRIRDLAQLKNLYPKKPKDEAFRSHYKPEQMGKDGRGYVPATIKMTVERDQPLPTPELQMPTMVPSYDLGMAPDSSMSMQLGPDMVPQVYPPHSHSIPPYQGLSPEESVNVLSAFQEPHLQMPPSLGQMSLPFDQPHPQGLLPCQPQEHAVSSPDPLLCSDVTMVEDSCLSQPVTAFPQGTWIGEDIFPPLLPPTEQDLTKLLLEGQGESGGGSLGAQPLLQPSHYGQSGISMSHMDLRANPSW
Description: STAT6 Reporter Luciferase Assay (IL-13 stimulated HaCaT keratinocyte NanoLuc reporter cells). Format: cell-based. Particulars: read-out: Reporter EC50. The method in brief:
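Cells were plated overnight, washed, exposed to compound for two hours, stimulated with IL-13 (0.12 nM final) for four hours at 37 °C, and then lysed with Nano-Glo substrate for 15 min before luminescence reading.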

For assay [1], the system named is CCL17 secretion in peripheral human whole blood. Description: Human Whole Blood (HWB) CCL17 TR-FRET Assay (IL-13 stimulated CCL17 secretion). In kind it is cell-based. Put shortly:
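Heparinized peripheral human whole blood was preincubated with compound (11-point, 3-fold series, duplicate) for 2 h at 37 °C, then stimulated with IL-13 at 10 ng/mL final for 48 h at 37 °C. Secreted CCL17 in the serum was quantified by TR-FRET sandwich immunoassay (665/615 nm ratio, 16 h RT); IC50 derived.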
(TR-FRET usually uses a lanthanide donor and a delayed reading to cut background.)

The mark [2] stands for this setting: IL-13 stimulated HaCaT STAT6 NanoLuc reporter cells.
Where [3] appears, read: Homo sapiens, 48 h, human whole blood, 10 ng/mL IL13, 48 hours.
[4] abbreviates: STAT6 NanoLuc luciferase reporter, IL-13 stimulated HaCaT keratinocyte cells.
Where [5] appears, read: Homo sapiens, 48 h, inhibition of CCL17 secretion in human whole blood, 10 ng/mL IL13, 48 hours.

One may read the EC50 as the concentration giving half of the maximal effect. A word on the IC50: it is the concentration that gives 50% inhibition. A higher IC50 goes with lower potency. With `CC(C)n1nc(C(=O)NCc2ccc(NC(=O)C3(F)CCN(C)CC3)cc2)c2c1[C@@H](C)CN(c1ccc(C(=O)N(C)C)cc1)C2` [Example 586, (S)-5-(4-(dimethylcarbamoyl)phenyl)-N-(4-(4-fluoro-1-methylpiperidine-4-carboxamido)benzyl)-1-isopropyl-7-methyl-4,5,6,7-tetrahydro-1H-pyrazolo[4,3-c]pyridine-3-carboxamide], the EC50 on STAT6 (setting [2]) amounted to 6 nM. This molecule gave an IC50 in assay [1] (setting [3]) of 58 nM.

With `CCC1CN(c2ccc(C(=O)N(C)C)cn2)Cc2c(C(=O)NCc3ccc(NC(=O)N(C)C)cc3)nn(CC)c21` (single isomer, unassigned) [Example 313, rel-(R or S)-5-(5-(dimethylcarbamoyl)pyridin-2-yl)-N-(4-(3,3-dimethylureido)benzyl)-1,7-diethyl-4,5,6,7-tetrahydro-1H-pyrazolo[4,3-c]pyridine-3-carboxamide], on STAT6 (setting [2]), the EC50 was determined as 1 nM. Further, in assay [1] (human whole blood, IL-13 stimulated, 48 hours), the IC50 is 15 nM.

With `CC(C)n1nc(C(=O)NCc2ccc(NC(=O)N(C)C)cc2)c2c1CCN(c1ccc(N3C[C@H](CO)CC3=O)cn1)C2` [Example 75, (R)-N-(4-(3,3-dimethylureido)benzyl)-5-(5-(4-(hydroxymethyl)-2-oxopyrrolidin-1-yl)pyridin-2-yl)-1-isopropyl-4,5,6,7-tetrahydro-1H-pyrazolo[4,3-c]pyridine-3-carboxamide], the EC50 at STAT6 (setting [4]) was determined as 2830 nM. In addition, the IC50 in assay [1] (setting [5]) stood at 4560 nM.

For `CN(C)C(=O)Nc1ccc(CNC(=O)c2nn(C3CCOCC3)c3c2CN(c2ccc(C(=O)N(C)C)cn2)CC3)cc1` [Example 76, 5-(5-(dimethylcarbamoyl)pyridin-2-yl)-N-(4-(3,3-dimethylureido)benzyl)-1-(tetrahydro-2H-pyran-4-yl)-4,5,6,7-tetrahydro-1H-pyrazolo[4,3-c]pyridine-3-carboxamide], the EC50 at STAT6 (setting [4]) came to 57 nM. In assay [1] (setting [5]), this molecule returned an IC50 of 156 nM.

Turning to `C[C@@H]1Cc2c(c(C(=O)NCc3ccc(NC(=O)N(C)C)cc3)nn2C)CN1c1ccc(-c2nccn2C)cn1` (single isomer, unassigned) [Example 122], the EC50 on STAT6 (setting [4]) is 24 nM. This molecule returned an IC50 in assay [1] (setting [5]) of 900 nM.

For `C[C@H]1Cc2c(c(C(=O)NCc3ccc(NC(=O)N(C)C)cc3)nn2C)CN1c1ccc(C(=O)N(C)C)cn1` [Example 51, (S)-5-(5-(dimethylcarbamoyl)pyridin-2-yl)-N-(4-(3,3-dimethylureido)benzyl)-1,6-dimethyl-4,5,6,7-tetrahydro-1H-pyrazolo[4,3-c]pyridine-3-carboxamide], the EC50 on STAT6 (setting [4]) came out at 4 nM. In assay [1] (setting [5]), this molecule returned an IC50 of 30 nM.

With `CC(C)n1nc(C(=O)NCc2ccc(NC(=O)N3CCNCC3)c(F)c2)c2c1[C@@H](C)CN(c1ccc(C(=O)N(C)C)cc1)C2` [Example 566, (S)-5-(4-(dimethylcarbamoyl)phenyl)-N-(3-fluoro-4-(piperazine-1-carboxamido)benzyl)-1-isopropyl-7-methyl-4,5,6,7-tetrahydro-1H-pyrazolo[4,3-c]pyridine-3-carboxamide], on STAT6 (setting [2]), the EC50 amounted to 2 nM. The same molecule displayed an IC50 in assay [1] (setting [3]) of 15 nM.

With `CNC1(C)CN(C(=O)Nc2ccc(CNC(=O)c3nn(C(C)C)c4c3CN(c3ccc(C(=O)N(C)C)cc3)C[C@@H]4C)cc2)C1` [Example 581, (S)-5-(4-(dimethylcarbamoyl)phenyl)-1-isopropyl-7-methyl-N-(4-(3-methyl-3-(methylamino)azetidine-1-carboxamido)benzyl)-4,5,6,7-tetrahydro-1H-pyrazolo[4,3-c]pyridine-3-carboxamide], the EC50 at STAT6 (setting [2]) worked out at 3 nM. The IC50 in assay [1] (setting [3]) amounted to 24 nM.

As for `COCC1(N)CCN(C(=O)Nc2ccc(CNC(=O)c3nn(C(C)C)c4c3CN(c3ccc(C(=O)N(C)C)cc3)C[C@@H]4C)cc2)CC1` [Example 638, (S)-N-(4-(4-amino-4-(methoxymethyl)piperidine-1-carboxamido)benzyl)-5-(4-(dimethylcarbamoyl)phenyl)-1-isopropyl-7-methyl-4,5,6,7-tetrahydro-1H-pyrazolo[4,3-c]pyridine-3-carboxamide], on STAT6 (setting [2]), the EC50 turned out to be 1 nM. For the same molecule, in assay [1] (setting [3]), the IC50 was 4 nM.
